Data on one substance can be found in patent US20030027787A1, “Crosslinked polysaccharide, obtained by crosslinking with substituted polyethylene glycol, as superabsorbant” (GROUP LYSAC INC./LYSAC GROUP INC., priority 2000, published 2003).

As for “Starch Maleate Half Ester, Crosslinked with 0.08 Eq. Triglycol Dichloride [Example 21]”, in the series with microorganisms, the toxicity for microorganisms result is “no toxicity”. Besides, the “toxic product destroying the aquatic flora” value with Daphnia magna is recorded as “no toxic product have been detected”.
